Experimental data published in patent publication US6682904B1, “Specific inhibitors of hyaluronidase 2, and methods of identifying and using same” (Deliatroph Pharmaceuticals, Inc., priority 2002, dated 2004).

Assays:
[1] = target: T1, human plasma hyaluronidase (Homo sapiens, UniProt Q12794); assay: Effect of EDTA and added calcium on activity of purified human plasma hyaluronidase; format: biochemical; conditions: purified preparations of human plasma hyaluronidase
T1 construct: made in house
T1 sequence (Q12794 22-435): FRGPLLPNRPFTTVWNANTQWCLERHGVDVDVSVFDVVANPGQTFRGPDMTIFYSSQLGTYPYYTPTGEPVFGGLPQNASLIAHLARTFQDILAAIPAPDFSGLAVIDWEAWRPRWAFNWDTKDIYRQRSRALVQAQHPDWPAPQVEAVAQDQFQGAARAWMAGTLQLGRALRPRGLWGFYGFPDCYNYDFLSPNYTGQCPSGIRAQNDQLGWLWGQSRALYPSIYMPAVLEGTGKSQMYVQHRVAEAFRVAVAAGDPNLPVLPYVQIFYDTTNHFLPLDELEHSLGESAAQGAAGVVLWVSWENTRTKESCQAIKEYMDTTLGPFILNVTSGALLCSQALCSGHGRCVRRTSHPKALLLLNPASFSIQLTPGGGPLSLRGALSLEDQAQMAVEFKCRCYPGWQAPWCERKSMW
Description: One hundred mg of human umbilical cord HA (ICN Pharmaceuticals; Irvine Calif.) was dissolved in 0.1 M MES, pH 5.0, to a final concentration of 1 mg/ml and allowed to dissolve for at least 24 hr at 4° C. prior to coupling of biotin. Sulfo-NHS (Pierce; Rockford Ill.) was added to the hyaluronate MES solution to a final concentration of 0.184 mg/ml. Biotin hydrazide (Pierce) was dissolved in DMSO as a stock solution of 100 mM and added to the HA solution to a final concentration of 1 mM. A stock solution of 1-ethyl-3-(3-dimethylaminopropyl) carbidodiimide (EDAC) was prepared as a 100 mM stock solution in distilled water and added to the HA biotin solution at a final concentration of 30 mM. This solution was left stirring overnight at 4° C. […]
(§1) The reaction was terminated by the addition of 200 μl/well of 6M Guanidine HCl followed by three washes of 300 μl/well with PBS, 2 M NaCl, 50 mM MgSO4, 0.05% TWEEN 20 detergent (Buffer B). […] The plate was incubated in the dark for 10-15 min, then read using a 492 nm filter in an ELISA plate reader (Titertek Multiskan PLUS; ICN) monitored by computer using the Delta Soft II plate reader software from Biometallics (Princeton N.J.). A standard curve using the bovine testicular hyaluronidase was generated by a four parameter curve fit of the commercial hyaluronidase preparation and unknown samples were interpolated through their absorbance at 492 nm.

[2] = system: human foreskin primary keratinocyte cultures; assay: Hyaluronidase activity in primary foreskin keratinocyte cultures after calcium-induced differentiation; format: cell-based; conditions: 1.5 mM calcium compared to 0.05 mM calcium, 72 hr in culture
Description: Hyaluronidase activity also was characterized in normal keratinocytes. Primary foreskin keratinocyte cultures were generated from circumcision tissue from […]. Briefly, tissue was washed 5× in PBS with penicillin, streptomycin, and fungizone, followed by digestion overnight at 4° C. in dispase. Epithelium was stripped from mesenchymal tissue with forceps and digested in trypsin followed by plating on collagen-coated plates in KGM (keratinocyte growth medium) with 0.05 mM calcium (Clonetics; San Diego Calif.). Cells were used between the first and fourth passage. To test the effects of induction of differentiation on hyaluronidase activity, cells were plated into 6 well plates and, at confluence, the medium was either replaced with fresh KGM with 0.05 mM calcium or changed to KGM with 1.5 mM calcium.
Cell layers and conditioned media were harvested after 72 hr in culture. Cell layers were harvested with 60 mM octylglucoside with 50 U/ml DNase I (Boehringer Mannheim; Indianapolis Ind.) and Complete™ protease inhibitor cocktail (Boehringer Mannheim) in PBS. Cells were extracted for 30 min on ice followed by centrifugation at 10,000× g for 10 min. Conditioned media from each sample was treated with octylglucoside and protease inhibitors. […] Activity was expressed as rTRU/mg cellular protein.

[3] = Microtiter-based hyaluronidase assay on immobilized biotinylated HA, pH dependence of enzyme activity; format: biochemical
Description: One hundred mg of human umbilical cord HA (ICN Pharmaceuticals; Irvine Calif.) was dissolved in 0.1 M MES, pH 5.0, to a final concentration of 1 mg/ml and allowed to dissolve for at least 24 hr at 4° C. prior to coupling of biotin. Sulfo-NHS (Pierce; Rockford Ill.) was added to the hyaluronate MES solution to a final concentration of 0.184 mg/ml. Biotin hydrazide (Pierce) was dissolved in DMSO as a stock solution of 100 mM and added to the HA solution to a final concentration of 1 mM. A stock solution of 1-ethyl-3-(3-dimethylaminopropyl) carbidodiimide (EDAC) was prepared as a 100 mM stock solution in distilled water and added to the HA biotin solution at a final concentration of 30 mM. This solution was left stirring overnight at 4° C. Unlinked biotin and EDAC were removed by dialysis against water with 3 changes of 1000× volume of water. The dialyzed, biotinylated HA (bHA) was aliquoted and stored at −20° C. for up to several months.
Sulfo-NHS was diluted to 0.184 mg/ml in water with the bHA at a concentration of 0.2 mg/ml and pipetted into 96 well COVALINK-NH plates (NUNC; Placerville N.J.) at 50 μl per well. EDAC was diluted to 0.123 mg/ml in water and pipetted into the COVALINK-NH plates with the HA solution resulting in a final concentration of 10 μg/well hyaluronate and 6.15 μg/well EDAC. […]
as §1, with “nm. […]” for “nm.”

O=C(O)CN(CCN(CC(=O)O)CC(=O)O)CC(=O)O [EDTA, reference compound]
inhibitory effect on enzyme activity [1]: no inhibitory effect

[Ca+2] [calcium]
stimulatory effect on enzyme activity ([1]; added calcium): nor did added calcium have a stimulatory effect
increase in hyaluronidase activity in conditioned media and cell layer [2]: approximately 25 fold

B1: Recombinant human plasma hyaluronidase: immunoaffinity purified recombinant human plasma hyaluronidase (HYAL1), acid-active enzyme (protein)
chain: T1 sequence (Q12794 22-435)
pH optimum of hyaluronidase activity ([3]; 0.1 rTRU enzyme, 50 mM buffers pH 3-8 without NaCl, 30 min at 37° C.): 3.8 pH
enzyme activity above pH 4.5 ([3]; above pH 4.5): no detectable activity
enzyme activity at neutral pH ([3]; neutral pH): no activity was detected
